According to patent US6878734B2, “Gastrin and cholecystokinin receptor ligands(II)” (James Black Foundation Limited, priority 2000, dated 2005):

How the values were obtained:
CCK1 receptors = target: T1, CCK1 receptors (Cavia porcellus, UniProt Q63931); experiment: CCK1 binding assay, guinea-pig pancreas membranes, [125I]-CCK8(S); settings: [125I]-CCK8(S) 200 pM, 150 minutes at 21±3° C; for Ki: read-out: Guinea-Pig Pancreas CCK1 pKi (converted)
T1 construct: The pancreatata were homogenised in 40 ml ice-cold HEPES buffer using a polytron; from tissue; host or cells: pancreas membranes of male Dunkin Hartley guinea-pigs
T1 sequence (Q63931 1-430): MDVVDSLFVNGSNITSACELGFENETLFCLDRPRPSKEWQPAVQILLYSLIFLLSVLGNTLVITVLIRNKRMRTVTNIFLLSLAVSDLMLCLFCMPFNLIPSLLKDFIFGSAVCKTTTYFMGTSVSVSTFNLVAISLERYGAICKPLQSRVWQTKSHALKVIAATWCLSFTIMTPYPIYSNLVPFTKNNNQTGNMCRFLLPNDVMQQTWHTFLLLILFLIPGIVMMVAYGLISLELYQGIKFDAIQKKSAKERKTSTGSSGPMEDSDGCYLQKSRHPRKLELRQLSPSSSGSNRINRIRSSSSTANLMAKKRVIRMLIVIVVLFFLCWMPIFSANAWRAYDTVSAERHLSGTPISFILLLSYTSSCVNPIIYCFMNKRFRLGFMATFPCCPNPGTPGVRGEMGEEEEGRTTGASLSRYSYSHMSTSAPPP
Procedure: The compounds of certain examples were also tested in a CCK1 binding assay as follows:
The pancreatata were removed from male guinea-pigs (200-300 g; Dunkin Hartley) and placed in ice-cold HEPES buffer (pH 7.2@21±3° C.). The pancreatata were homogenised in 40 ml ice-cold HEPES buffer using a polytron (Brinkmann, PT10, setting 10) 4×1 second. The homogenate was centrifuged at 39,800 g for 15 min at 4° C. The supernatant was discarded and the pellet re-suspended using a Teflon-in-glass homogeniser in 20 volumes of fresh buffer and re-centrifuged as above. The final pellet was re-suspended using a Teflon-in-glass homogeniser to a tissue concentration of 1 mg.ml^−1 (original wet weight), and filtered through a 500 μm pore-size Nytex mesh.
The membranes (400 μl; containing 0.375 μM PD134,308) were incubated for 150 minutes at 21±3° C. in a final volume of 0.5 ml with HEPES buffer containing [^125I]-CCK8 (S) (50 μl; 200 pM) and competing compound. Total and non-specific binding of [^125I]-CCK8 (S) were defined using 50 μl of buffer and 50μ of 100 nM L-364,718 respectively. The assay was terminated by rapid filtration through pre-soaked Whatman GF/B filters using a Brandell Cell Harvetser. The filters were washed (3×3 ml) with ice-cold 50 mM Tris HCl (pH 7.4@4° C.) and bound radioactivity was determined by counting (1 min) in a gamma counter.

gastrin (CCK2) receptors = target: T2, gastrin (CCK2) receptors (Rattus norvegicus, UniProt P30553); experiment: immature rat stomach assay, gastrin (CCK2) antagonist activity; settings: isolated immature rat stomach, antagonism of pentagastrin-stimulated acid secretion, 60 min incubation; for Kb: read-out: Rat stomach pKB (converted)
T2 construct: The stomach was excised and flushed with ca. 1 ml of unbuffered physiological saline solution; from tissue; host or cells: isolated whole stomach of immature rats (33-50 g, ca. 21 days old)
T2 sequence (P30553 1-452): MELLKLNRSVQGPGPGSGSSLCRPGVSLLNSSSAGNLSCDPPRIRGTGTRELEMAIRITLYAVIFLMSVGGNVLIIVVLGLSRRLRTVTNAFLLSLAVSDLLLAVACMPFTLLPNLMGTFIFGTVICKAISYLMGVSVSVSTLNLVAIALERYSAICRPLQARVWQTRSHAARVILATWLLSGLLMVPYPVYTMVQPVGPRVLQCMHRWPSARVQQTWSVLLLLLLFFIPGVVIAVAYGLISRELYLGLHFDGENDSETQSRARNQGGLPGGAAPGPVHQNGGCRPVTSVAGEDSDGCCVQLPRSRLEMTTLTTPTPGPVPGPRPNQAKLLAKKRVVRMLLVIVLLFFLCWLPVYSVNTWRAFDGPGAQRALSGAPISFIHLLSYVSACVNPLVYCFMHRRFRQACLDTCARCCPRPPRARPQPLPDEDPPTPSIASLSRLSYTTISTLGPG
Procedure: The compounds of the examples were tested for gastrin (CCK2) antagonist activity in an immature rat stomach assay. The procedure was as follows:
The oesophagus of immature rats (33-50 g, ca. 21 days old) was ligated at the level of the cardiac sphincter and the duodenal sphincter was cannulated. The stomach was excised and flushed with ca. 1 ml of unbuffered physiological saline solution. The fundus was punctured and cannulated. A further 4-5 ml of unbuffered solution was flushed through the stomach to ensure the preparation was not leaking. The stomach was lowered into a jacketed organ bath containing 40 ml of buffered solution containing 3×10^−8 M 5-methylfurmethide, maintained at 37° and gassed vigorously with 95% O2/5% CO2. The stomach was continuously perfused at a rate of 1 ml min^−1 with unbuffered solution gassed with 100% O2 with perfusate passing over an internally referenced pH-electrode fixed 12 cm above the stomach.
After 120 min of stabilisation the drugs were added directly to the serosal solution in the organ bath and after a further 60 min cumulative pentagastrin dose-response curves were started. Changes in acid secretion were monitored and the curves analysed according to Black et al., Br. J. Pharmacol., 1985, 86, 581.

| Compound | Guinea-Pig Pancreas CCK1 pKi (CCK1 receptors) | Rat stomach pKB (gastrin (CCK2) receptors) | Ki (CCK1 receptors) [µM] | Kb (gastrin (CCK2) receptors) [µM] |
| --- | --- | --- | --- | --- |
| 2-{5-[5-(Adamantan-1-yloxymethyl)-2-cyclohexyl-1H-imidazol-2-yl]-[1,3,4]oxadiazol-2-yl}-isonicotinic acid [Example 14] | 5.01 | 5.98 | – | – |
| 3-{2-[5-(2-Adamantan-1-yl-ethyl)-2-o-tolyl-1H-imidazol-4-yl]-[1,2,4]oxadiazol-3-yl}-benzoic acid [Example 5] | 6.40 | 5.76 | – | – |
| 3-{2-[5-(Adamantan-1-yloxymethyl)-2-cyclohexyl-1H-imidazol-4-yl]-[1,2,4]oxadiazol-3-yl}-benzoic acid [Example 3] | 6.37 | 8.66 | – | – |
| 3-{5-[5-(Adamantan-1-yloxymethyl)-2-cyclohexyl-1H-imidazol-4-yl]-[1,3,4]triazol-3-yl}-benzoic acid [Example 10] | 6.41 | 8.28 | – | – |
| 3-{5-[5-(Adamantan-1-yloxymethyl)-2-cyclohexyl-3-hydroxy-1H-imidazol-4-yl]-[1,3,4]oxadiazol-2-yl}-benzoic acid [Example 17] | 5.23 | 6.90 | – | – |
| O=C(O)c1cccc(-c2coc(-c3nc(C4CCCCC4)[nH]c3COC34CC5CC(CC(C5)C3)C4)n2)c1 [Example 1, 3-{2-[5-(Adamantan-1-yloxymethyl)-2-cyclohexyl-1H-imidazol-4-yl}-oxazol-4-yl}-benzoic acid] | – | – | 0.741 | 0.00794 |
| Cc1ccccc1-c1nc(-c2nc(-c3cccc(C(=O)O)c3)co2)c(CCC23CC4CC(CC(C4)C2)C3)[nH]1 [Example 2, 3-{2-[5-(2-Adamantan-1-yl-ethyl)-2-o-tolyl-1H-imidazol-4-yl]oxazol-4-yl}-benzoic acid] | – | – | 1.17 | 0.0182 |
| O=C(O)c1cccc(-c2noc(-c3nc(C4CCCCC4)[nH]c3CCC34CC5CC(CC(C5)C3)C4)n2)c1 [Example 4, 3-{2-[5-(2-Adamantan-1-yl-ethyl)-2-cyclohexyl-1H-imidazol-4-yl]-[1,2,4]oxadiazol-3-3-yl}-benzoic acid] | – | – | 0.339 | 0.00692 |
| O=C(O)c1cccc(-c2csc(-c3nc(C4CCCCC4)[nH]c3COC34CC5CC(CC(C5)C3)C4)n2)c1 [Example 6, 3-{2-[5-(Adamantan-1-yloxymethyl)-2-cyclohexyl-1H-imidazol-4-yl]-thiazol-4-yl}-benzoic acid] | – | – | 1.15 | 0.00269 |
| O=C(O)c1cccc(-c2c[nH]c(-c3nc(C4CCCCC4)[nH]c3COC34CC5CC(CC(C5)C3)C4)n2)c1 [Example 7, 3-[5′-(Adamantan-1-yloxymethyl)-2′cyclohexyl-1H,1H′-[2,4′]biimidazolyl-4-yl]-benzoic acid] | – | – | 0.269 | 0.0977 |
| O=C(O)c1cccc(-c2nnc(-c3nc(C4CCCCC4)[nH]c3COC34CC5CC(CC(C5)C3)C4)s2)c1 [Example 8, 3-{5-[5-(Adamantan-1-yloxymethyl)-2-cyclohexyl-1H-imidazol-4-yl]-[1,3,4]thiadiazol-2-yl}-benzoic acid] | – | – | 0.135 | 0.00372 |
| O=C(O)c1cccc(-c2nnc(-c3nc(C4CCCCC4)[nH]c3COC34CC5CC(CC(C5)C3)C4)o2)c1 [Example 9, 3-{5-[5-(Adamantan-1-yloxymethyl)-2-cyclohexyl-1H-imidazol-4-yl]-[1,3,4]oxadiazol-2-yl}-benzoic acid] | – | – | 0.55 | 0.00245 |
| O=C(O)c1cccc(C2CN=C(c3nc(C4CCCCC4)[nH]c3COC34CC5CC(CC(C5)C3)C4)O2)c1 (centres unmarked) [Example 11, 3-{2-[5-(Adamantan-1-yloxymethyl)-2-cyclohexyl-1H-imidazol-4-yl]-4,5-dihydro-oxazol-5-yl}-benzoic acid] | – | – | – | 0.191 |
| O=C(O)c1cccc(-c2nnc(-c3nc(C4CCCCC4)[nH]c3COC34CC5CC(CC(C5)C3)C4)o2)n1 [Example 12, 6-{5-[5-(Adamantan-1-yloxymethyl)-2-cyclohexyl-1H-imidazol-4-yl]-[1,3,4]oxadiazol-2-yl}-pyridine-2-carboxylic acid] | – | – | 2.14 | – |
| O=C(O)c1cncc(-c2nnc(-c3nc(C4CCCCC4)[nH]c3COC34CC5CC(CC(C5)C3)C4)o2)c1 [Example 13, 5-{5-[5-(Adamantan-1-yloxymethyl)-2-cyclohexyl-1H-imidazol-4-yl]-[1,3,4]oxadiazo-2-yl}-nicotinic acid] | – | – | 3.24 | 0.0229 |
| O=C(O)c1cccc(-c2nnc(-c3nc(C45CCC(CC4)CC5)[nH]c3COC34CC5CC(CC(C5)C3)C4)o2)c1 [Example 16, 3-{5-[5-(Adamantan-1-yloxymethyl)-2-bicyclo[2.2.2]oct-1-yl-1H-imidazol-4-yl]-[1,3,4]oxadiazol-2-yl}-benzoic acid] | – | – | 0.468 | 0.00191 |
| O=C(O)c1cccc(-c2nc(-c3nc(C4CCCCC4)[nH]c3COC34CC5CC(CC(C5)C3)C4)no2)c1 [Example 18, 3-{3-[5-(Adamantan-1-yloxymethyl)-2-cyclohexyl-1H-imidazol-4-yl]-[1,2,4]oxadiazol-5-yl}-benzoic acid] | – | – | 0.501 | 0.0024 |
